Test system: BB/W rats
Test: Retinal disorders in diabetic BB/W rats (BM thickness, E/P ratio)
Type: in vivo, rat
Details: for BM THICKNESS ± SD (n = 3) / E/P RATIO (n = 8–10): diabetic BB/W rats
Experimental: Four (4) groups of rats received daily insulin injections to maintain their glucose levels at about 350 mg/dl. Starting at the onset of hyperglycemia, NAALADase inhibitor 2-(3-sulfanylpropyl)-pentanedioic acid was administered daily for 6 months to one group of BB/W rats at a dose of 10 mg/kg and to a second group of BB/W rats at a dose of 30 mg/kg. A third group of BB/W rats and a fourth group of non-diabetic rats received daily vehicle treatment (50 mM Hepes buffered saline).
After six (6) months of NAALADase inhibitor or vehicle treatment, the rats were sacrificed and their eyes were removed. From each rat, one eye was processed for elastase digest while the other eye was processed for transmission electron microscopy (TEM) and basement membrane (BM) thickness.
Retinal digests were prepared using elastase on retinas as described in Layer, N., Invest Ophthalmol Vis Sci (1993) 34:2097. Eyes were removed from recently killed BB/W rats (n=25) and age-matched […] controls (n=10). The retinas (n=35) were fixed at room temperature by immersing the whole eye (slit at limbus) in 4% (w/v) paraformaldehyde in 50 mmol/L Na—K phosphate buffer with 8% sucrose. The fixed retinas were rinsed in deionized water and were incubated for 3 minutes in a 37° C. agitating water bath in 40 units/mL elastase in Na—K phosphate buffer with 150 mmol/L NaCl and 5 mmol/L ethylenediamine tetraacetic acid (EDTA), pH 6.5. The tissues were washed overnight in 100 mmol/L Tris-HCL (pH 8.5) and then transferred to deionized water for removal of the loosened vitreous and digested neural elements by gentle agitation using the sides of closed forceps and the sides and ends of very fine brushes. After all loose tissues were removed, the retinas were incubated once more in fresh enzyme for 3 minutes and then subjected to a second overnight wash at room temperature in Tns-HCl buffer. On the third day, the retinas were again transferred to deionized water for additional removal of digested neural elements. The vascular network that was completely free of nonvascular elements was mounted flat by flotation in Ca^2+ and Mg^2+ free Dulbecco's PBS on siliconized slides (#S1308, Oncor, Gaithersburg, Md.). After air drying in a dust free environment, the mounts of the retinal microvasculature were stained using periodic acid Schiff reaction and hematoxylin counterstaining, as described in Luna, L., ed. Manual of Histologic Staining Methods of the Armed Forces Institute of Pathology (1968) McGraw-Hill, New York, N.Y. The preparations were then examined by light microscopy and photographed.
The stained and intact retinal whole mounts were coded and subsequent counting was done masked, as described in Cuthbertson, R., Invest Ophthalmol Vis Sci. (1986) 27:1659–1664).
Ten fields at ×100 magnification were counted for endothelial and pericyte cells using previously described morphologic criteria (see Kuwabara, T., Arch Ophthalmol. (1960) 64:904–911). In every sample, at least 200 cells were counted from the mid zone of the retina. Mean values for endothelial cell/pericyte (E/P) ratios were initially calculated in 3 retinas from each of the four (4) groups of rats.
Each eye was fixed in 4% glutaraldehyde and dissected free of sclera and choroids, then trimmed and postfixed in 1% osmium tetroxide. After dehydration and embedding, thin sections were stained with uranyl acetate and lead citrate. Initially, BM thickness of retinal capillaries from 3 non-diabetic rats receiving vehicle, 3 diabetic animals receiving 10 mg/kg 2-(3-sulfanylpropyl)-pentanedioic acid, and 3 diabetic rats receiving 30 mg/kg 2-(3-sulfanylpropyl)-pentanedioic acid were compared with 3 diabetic rats receiving a vehicle. At least 10 capillaries per eye from the inner nuclear and plexiform layers were photographed at a magnification of 10,000×. Exact magnification was determined for each set of negatives with a 28,800 line/inch calibration grid. Negatives were enlarged 3×. […]

[1] = 10 mg/kg daily for 6 months, 10 mg/kg
[2] = 10 mg/kg daily for 6 months, listed as NAALADASE INHIBITOR, 10 mg/kg
[3] = 30 mg/kg daily for 6 months, 30 mg/kg
[4] = 30 mg/kg daily for 6 months, listed as NAAALADASE INHIBITOR, 30 mg/kg
[5] = high dose (30 mg/kg), six months
[6] = low dose (10 mg/kg), six months

For `O=C(O)CCC(CCCS)C(=O)O` (stereo not drawn) [Compound B, 2-(3-sulfanylpropyl)-pentanedioic acid], the “BM THICKNESS ± SD (n = 3)” value [1] was 82.3±4.07 nm, the “E/P RATIO (n = 8–10)” value [1] was 2.4±0.5 and the “BM THICKNESS ± SD (n = 3)” value [2] was 82.3 ± 4.07 nm. The “E/P RATIO (n = 8–10)” value [2] was 2.4 ± 0.5, the “BM THICKNESS ± SD (n = 3)” value [3] was 71.7±4.07 nm and the “E/P RATIO (n = 8–10)” value [3] was 1.9±0.4. For the same molecule, the “BM THICKNESS ± SD (n = 3)” value [4] was 71.7 ± 4.07 nm, the “E/P RATIO (n = 8–10)” value [4] was 1.9 ± 0.4 and the “reduction in BM thickness versus diabetic vehicle” value [5] was 29.0%. The “reduction of E/P ratios versus diabetic vehicle” value [5] was 37%, the “decrease in BM thickness versus diabetic vehicle” value [6] was 18.5% and the “reduction of E/P ratios versus diabetic vehicle” value [6] was 20%.
